Values joined by “and” are separate entries in the source; they are usually repeats but may differ in a detail not shown here. Equal entries are not always repeated. Marks after values point to notes of the source that are not given here. Non-standard residues stand in square brackets, D forms with d. Residues, ends and D or L forms follow the SMILES beside them. *: point of attachment. Asu = N[C@@H](CCCCCC(=O)O)C(=O)O; NHOH = ON*
What was measured:
[1] = biological target: T1, HDAC1 (Homo sapiens, UniProt Q13547); assay: Recombinant HDAC µSPOT microarray binding assay;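 note: slides with spotted peptides incubated with six HDAC concentrations in HEPES buffer pH 7.4, spot intensities fitted by four-parameter logistic, EC50 as enzyme concentration giving half-maximal binding signal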
T1 construct: HDAC1 (full length, C-terminal His tag, C-terminal FLAG tag, BPS Bioscience, cat. #: 50051); FLAG (C); purchased BPS Bioscience 50051
T1 sequence (Q13547 whole entry): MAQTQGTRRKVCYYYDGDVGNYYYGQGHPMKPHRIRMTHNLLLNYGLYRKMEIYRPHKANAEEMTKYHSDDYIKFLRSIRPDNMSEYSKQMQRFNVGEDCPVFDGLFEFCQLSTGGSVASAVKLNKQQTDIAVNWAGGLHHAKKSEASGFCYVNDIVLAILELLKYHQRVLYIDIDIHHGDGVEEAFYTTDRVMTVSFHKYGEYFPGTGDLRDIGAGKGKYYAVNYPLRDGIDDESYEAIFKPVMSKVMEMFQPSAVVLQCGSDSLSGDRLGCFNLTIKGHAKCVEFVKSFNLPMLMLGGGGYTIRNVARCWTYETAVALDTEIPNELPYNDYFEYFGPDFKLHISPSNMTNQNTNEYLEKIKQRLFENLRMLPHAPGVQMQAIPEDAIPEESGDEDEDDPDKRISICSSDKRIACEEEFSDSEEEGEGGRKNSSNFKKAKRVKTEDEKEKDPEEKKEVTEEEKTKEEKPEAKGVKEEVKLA

[2] = biological target: T2, HDAC2 (Homo sapiens, UniProt Q92769); assay: Recombinant HDAC µSPOT microarray binding assay;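 note: Cellulose-bound peptide spots on slides incubated with six HDAC enzyme concentrations, binding intensity read, four-parameter variable-slope fit, EC50 is enzyme concentration giving half-maximal binding, in HEPES buffer pH 7.4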
T2 construct: HDAC2 (full length, C-terminal His tag, BPS Bioscience, cat. #: 50002); purchased BPS Bioscience 50002
T2 sequence (Q92769 whole entry): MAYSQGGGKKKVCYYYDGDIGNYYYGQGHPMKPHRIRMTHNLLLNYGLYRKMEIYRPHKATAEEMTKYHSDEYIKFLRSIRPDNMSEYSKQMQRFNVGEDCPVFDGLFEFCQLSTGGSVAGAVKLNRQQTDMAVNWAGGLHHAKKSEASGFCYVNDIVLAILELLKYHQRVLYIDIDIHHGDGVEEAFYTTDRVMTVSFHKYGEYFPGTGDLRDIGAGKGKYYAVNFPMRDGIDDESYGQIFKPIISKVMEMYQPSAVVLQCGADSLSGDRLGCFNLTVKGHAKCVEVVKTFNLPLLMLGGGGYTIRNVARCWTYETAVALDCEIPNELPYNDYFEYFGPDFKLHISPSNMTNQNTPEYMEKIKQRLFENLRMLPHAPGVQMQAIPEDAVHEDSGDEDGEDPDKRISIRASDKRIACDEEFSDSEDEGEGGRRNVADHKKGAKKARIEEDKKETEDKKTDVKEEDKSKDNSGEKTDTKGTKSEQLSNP

[3] = biological target: T3, HDAC3/NCoR2 (Homo sapiens, UniProt O15379); assay: Recombinant HDAC µSPOT microarray binding assay;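 note: peptide spots on cellulose slides incubated with rising HDAC enzyme concentrations, imaged together, four-parameter logistic fit, EC50 is enzyme concentration giving half-maximal binding signal, two experiments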
T3 construct: HDAC3/NCoR2 (full length, C-terminal His tag, NCoR2 N-terminal GST tag); purchased BPS Bioscience 50003
T3 sequence (O15379 whole entry): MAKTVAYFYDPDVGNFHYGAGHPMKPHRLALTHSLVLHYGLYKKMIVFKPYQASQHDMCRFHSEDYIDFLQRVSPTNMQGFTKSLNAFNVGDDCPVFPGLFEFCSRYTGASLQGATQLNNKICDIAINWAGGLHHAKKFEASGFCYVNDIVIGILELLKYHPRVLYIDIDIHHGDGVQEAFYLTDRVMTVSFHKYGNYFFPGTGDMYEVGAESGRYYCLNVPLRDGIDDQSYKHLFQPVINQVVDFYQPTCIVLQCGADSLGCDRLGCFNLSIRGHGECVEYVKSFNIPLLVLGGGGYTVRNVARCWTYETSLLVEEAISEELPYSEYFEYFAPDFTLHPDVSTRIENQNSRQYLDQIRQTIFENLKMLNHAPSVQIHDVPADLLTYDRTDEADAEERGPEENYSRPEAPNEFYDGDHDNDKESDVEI
T3 sequence (Q9Y618 389-480 partner limits assumed): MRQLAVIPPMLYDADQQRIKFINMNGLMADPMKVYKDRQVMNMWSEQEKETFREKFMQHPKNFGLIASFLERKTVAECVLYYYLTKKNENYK
Protocol: Experiments were performed twice, data were obtained with Array Analyze software (Active Motif), and data analysis and representation were performed with the GraphPad Prism 7 software. Outliers were curated manually and data were fitted to nonlinear regression [log(agonist) vs. response—variable slope (four parameters)]. […] Non-sigmoidal curves were denoted as not determined (N.D.) The pEC50 values were determined as the concentration of HDAC enzyme required for half-maximal binding signal.

[4] = biological target: T4, HDAC8 (Homo sapiens, UniProt Q9BY41); assay: Recombinant HDAC µSPOT microarray binding assay;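 note: peptide µSPOT slides incubated with varying HDAC enzyme concentrations, imaged signal intensity fitted by four-parameter variable-slope regression, EC50 is enzyme concentration giving half-maximal binding, pH 7.4 HEPES buffer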
T4 construct: HDAC8 (full length, C-terminal His tag, BPS Bioscience, cat. #: 50008); purchased BPS Bioscience 50008
T4 sequence (Q9BY41 1-377): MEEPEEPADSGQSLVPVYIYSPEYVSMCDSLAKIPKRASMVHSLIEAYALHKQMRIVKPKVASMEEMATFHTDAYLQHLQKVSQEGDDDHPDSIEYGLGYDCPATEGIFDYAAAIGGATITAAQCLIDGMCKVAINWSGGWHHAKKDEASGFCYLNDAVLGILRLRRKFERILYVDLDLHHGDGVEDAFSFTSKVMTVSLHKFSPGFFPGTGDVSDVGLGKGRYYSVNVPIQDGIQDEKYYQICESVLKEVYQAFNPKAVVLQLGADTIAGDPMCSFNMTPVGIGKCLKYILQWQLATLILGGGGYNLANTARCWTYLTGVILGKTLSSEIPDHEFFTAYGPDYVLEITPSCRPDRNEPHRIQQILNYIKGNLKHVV

[5] = biological target: T1, HDAC1; assay: HDAC inhibition assay (fluorogenic, Ac-Leu-Gly-Lys(Ac)-AMC); format: biochemical; conditions: for HDAC1 dose-response data (relative enzyme activity), Fig. 6 + S. Fig. 10: duplicate columns
[6] = biological target: T2, HDAC2; assay: as above; format: biochemical; conditions: for HDAC2 dose-response data (relative enzyme activity), Fig. 6 + S. Fig. 10: duplicate columns
[7] = biological target: T3, HDAC3/NCoR2; assay: as above; format: biochemical; conditions: for HDAC3 dose-response data (relative enzyme activity), Fig. 6 + S. Fig. 10: duplicate columns
[8] = biological target: T4, HDAC8; assay: HDAC inhibition assay (fluorogenic, Ac-Leu-Gly-Lys(Tfa)-AMC); format: biochemical; conditions: for HDAC8 dose-response data (relative enzyme activity, replicate values), Fig. 6 + S. Fig. 10: two replicate columns per inhibitor; for HDAC8 dose-response data (relative enzyme activity), Fig. 6 + S. Fig. 10: duplicate columns
[9] = system: HDACs 1‒3 and 8; assay: HDAC inhibition assays, statements across several class I isozymes; format: biochemical, human; conditions: resynthesized peptides, from Ki
[10] = log[inhibitor(M)] -10,5850266520292*, whole line marked with asterisks

## CC(=O)NCC(=O)NCC(=O)N[C@@H](CCCCCC(=O)NO)C(=O)N[C@@H](C)C(=O)N[C@@H](CCCNC(=N)N)C(=O)N[C@@H](C)C(=O)N[C@@H](CCCCN)C(=O)N[C@@H](C)C(=O)N[C@@H](CCCCN)C(=O)N[C@H](C(=O)N[C@@H](CCCNC(=N)N)C(=O)N[C@@H](CO)C(=O)N[C@@H](CO)C(=O)N[C@@H](CCCNC(=N)N)C(=O)N[C@@H](C)C(=O)NCC(=O)N[C@@H](Cc1c[nH]c2ccccc12)C(N)=O)[C@@H](C)O [9a] (Ac-GG[Asu](NHOH)ARAKAKTRSSRAGW-NH2)
[1]
  EC50: > 25.1 nM
[2]
  EC50: 1.95 nM
[3]
  EC50: 6.03 nM
[4]
  EC50: > 25.1 nM
[5]
  Ki: 31.1 ± 0.2 nM
[5]; log[inhibitor(M)] -5.69897
  HDAC1 dose-response data (relative enzyme activity), Fig. 6 + S. Fig. 10: 7.627 and 13.3733
[5]; log[inhibitor(M)] -6.39794
  HDAC1 dose-response data (relative enzyme activity), Fig. 6 + S. Fig. 10: 29.353 and 31.2435
[5]; log[inhibitor(M)] -7.09691
  HDAC1 dose-response data (relative enzyme activity), Fig. 6 + S. Fig. 10: 58.5172 and 64.5613
[5]; log[inhibitor(M)] -7.79588
  HDAC1 dose-response data (relative enzyme activity), Fig. 6 + S. Fig. 10: 95.7003 and 88.0669
[5]; log[inhibitor(M)] -8.49485
  HDAC1 dose-response data (relative enzyme activity), Fig. 6 + S. Fig. 10: 105.543 and 108.963
[5]; log[inhibitor(M)] -9.19382
  HDAC1 dose-response data (relative enzyme activity), Fig. 6 + S. Fig. 10: 98.3062 and 98.503
[5]; log[inhibitor(M)] -9.89279
  HDAC1 dose-response data (relative enzyme activity), Fig. 6 + S. Fig. 10: 101.14 and 97.4578
[5]; [10]
  HDAC1 dose-response data (relative enzyme activity), Fig. 6 + S. Fig. 10: 103,131* and 101,221*
[6]; log[inhibitor(M)] -5
  HDAC2 dose-response data (relative enzyme activity), Fig. 6 + S. Fig. 10: 5.281 and 8.057
[6]; log[inhibitor(M)] -5.69897
  HDAC2 dose-response data (relative enzyme activity), Fig. 6 + S. Fig. 10: 15.9037 and 16.112
[6]; log[inhibitor(M)] -7.79588
  HDAC2 dose-response data (relative enzyme activity), Fig. 6 + S. Fig. 10: 105.562 and 90.7957
[6]; [10]
  HDAC2 dose-response data (relative enzyme activity), Fig. 6 + S. Fig. 10: 99,9428* and 99,2519*
[6]; resynthesized peptide in solution, Cheng-Prusoff, n = 2
  Ki: 48 ± 0.5 nM
[7]
  Ki: 7.66 ± 0.07 nM
[7]; log[inhibitor(M)] -4.30103
  HDAC3 dose-response data (relative enzyme activity), Fig. 6 + S. Fig. 10: 0.3821 and 0.6391
[7]; log[inhibitor(M)] -5
  HDAC3 dose-response data (relative enzyme activity), Fig. 6 + S. Fig. 10: 2.293 and 2.409
[7]; log[inhibitor(M)] -5.69897
  HDAC3 dose-response data (relative enzyme activity), Fig. 6 + S. Fig. 10: 8.406 and 7.571
[7]; log[inhibitor(M)] -6.39794
  HDAC3 dose-response data (relative enzyme activity), Fig. 6 + S. Fig. 10: 24.6725 and 18.9774
[7]; log[inhibitor(M)] -7.09691
  HDAC3 dose-response data (relative enzyme activity), Fig. 6 + S. Fig. 10: 37.2271 and 35.3982
[7]; log[inhibitor(M)] -7.79588
  HDAC3 dose-response data (relative enzyme activity), Fig. 6 + S. Fig. 10: 64.8472 and 61.8977
[7]; log[inhibitor(M)] -8.49485
  HDAC3 dose-response data (relative enzyme activity), Fig. 6 + S. Fig. 10: 94.5961 and 96.0669
[7]; log[inhibitor(M)] -9.19382
  HDAC3 dose-response data (relative enzyme activity), Fig. 6 + S. Fig. 10: 98.4716 and 100.59
[7]; log[inhibitor(M)] -9.89279
  HDAC3 dose-response data (relative enzyme activity), Fig. 6 + S. Fig. 10: 99.7271 and 104.621
[7]; [10]
  HDAC3 dose-response data (relative enzyme activity), Fig. 6 + S. Fig. 10: 100,6* and 100,492*
[8]
  Ki: 5.57 ± 0.13 µM
[8]; Inhibitor conc [M] -8.49485 (log)
  HDAC8 dose-response data (relative enzyme activity, replicate values), Fig. 6 + S. Fig. 10: 101.387 and 98.0647
[8]; Inhibitor conc [M] -9.19382 (log)
  HDAC8 dose-response data (relative enzyme activity, replicate values), Fig. 6 + S. Fig. 10: 105.308 and 102.184
[8]; Inhibitor conc [M] given as -7.09691 (log)
  HDAC8 dose-response data (relative enzyme activity, replicate values), Fig. 6 + S. Fig. 10: 100.377 and 94.2492
[8]; Inhibitor conc [M] given as -7.79588 (log)
  HDAC8 dose-response data (relative enzyme activity, replicate values), Fig. 6 + S. Fig. 10: 101.512 and 95.1709
[8]; Inhibitor conc [M] given as -9.89279 (log)
  HDAC8 dose-response data (relative enzyme activity, replicate values), Fig. 6 + S. Fig. 10: 102.446 and 100.014
[8]; Inhibitor conc [M] given as -10.585 (log)
  HDAC8 dose-response data (relative enzyme activity, replicate values), Fig. 6 + S. Fig. 10: 102,003* and 99,4628*
[8]; Inhibitor conc [M] -4.30103
  HDAC8 dose-response data (relative enzyme activity), Fig. 6 + S. Fig. 10: 8.643 and 13.2074
[8]; Inhibitor conc [M] -5
  HDAC8 dose-response data (relative enzyme activity), Fig. 6 + S. Fig. 10: 41.9349 and 42.6215
[8]; Inhibitor conc [M] -5.69897
  HDAC8 dose-response data (relative enzyme activity), Fig. 6 + S. Fig. 10: 76.1615 and 76.0658
[8]; Inhibitor conc [M] -6.39794
  HDAC8 dose-response data (relative enzyme activity), Fig. 6 + S. Fig. 10: 95.4429 and 93.9691
[9]
  selectivity against HDACs 1‒3 versus HDAC8: over 100 fold
